# Columns and labels:
# [1] = system: SAA-induced production of IL-18 by THP-1 cells; experiment: SAA-stimulated inflammation in THP-1 cells: IL-18 production; format: cell-based; details: THP-1 cells treated with PMA and SAA
# From the text: (§1) FIG. 1 summarizes the protocol employed to evaluate the effect of 1,3-propanedisulfonic acid (or a pharmaceutically acceptable salt thereof) on SAA (serum amyloid A) stimulated inflammation in THP-1 cells.
# (§2) THP-1 cells were subjected to PMA (phorbol 12-myristate 13-acetate (EMD Cat. #524400)), SAA (serum amyloid A (PeroTech Cat. #300-13)), and 1,3-propanedisulfonic acid (KIACTA C933 (NRA610-01-CF)). The SAA treated cells were used as a positive control, with the SAA increasing the inflammatory mediators, TNF, IL-18 and IL-10. 1,3-propanedisulfonic acid is added to the cell cultures and the effect on TNF, IL-18 and IL-10 levels is measured.
# [2] = system: SAA-induced production of IL-TNF by THP-1 cells; experiment: SAA-stimulated inflammation in THP-1 cells: TNF production; format: cell-based; details: THP-1 cells treated with PMA and SAA
# From the text: as §1, §2
# [3] = system: SAA-induced production of IL-10 by THP-1 cells; experiment: SAA-stimulated inflammation in THP-1 cells: IL-10 production; format: cell-based; details: THP-1 cells treated with PMA and SAA
# From the text: as §1, §2
# sarcoidosis = experiment: Treatment of a patient diagnosed with sarcoidosis; format: in vivo
# Description: A patient is diagnosed with sarcoidosis, and 1,3-propane disulfonic acid is administered to the patient.
smiles,measurement,setting,value
"O=S(=O)(O)CCCS(=O)(=O)O [1,3-propanedisulfonic acid]",concentration that inhibits SAA-induced production of IL-18,[1],≥ 5 mg/mL
same,concentration that inhibits SAA-induced production of IL-TNF,[2],≥ 1.25 mg/mL
same,concentration that inhibits SAA-induced production of IL-10,[3],≥ 2.5 mg/mL
same,effect on sarcoidosis symptoms,sarcoidosis,reduction and/or alleviation of sarcoidosis symptoms
